From patent US11306101B2 (Celgene Corporation, priority 2019, dated 2022)

Biological target: T1, CK1α (Homo sapiens, UniProt P48729+Q96SW2)
T1 construct: expressed in transfected cells
Assay: CK1α ePL degradation assay in MDS-L cells
Type: cell-based
Conditions: MDS-L cells expressing ePL-tagged CK1α; for DC50: concentration giving 50% CK1α degradation vs DMSO control; for Y: lowest measured CK1α level normalized to DMSO control
Experimental: The following is an example of an assay that can be used to determine the CK1α degradation activity of Isoindolinone Carboxamide Compounds in a cell line, for example, the MDS-L cell line.
Compounds were dispensed by an acoustic dispenser (ATS acoustic transfer system from EDC Biosystems) into a 384-well in a 10 point dose-response curve using 3-fold dilutions starting at 10 μM and going down to 0.0005 μM in DMSO. […] Assay plates were incubated at 37° C. with 5% CO2 for the indicated times. At the different time points, 25 μL of the InCELL Hunter™ Detection Reagent Working Solution (catalog number 96-0002, DiscoverX, Fremont, Calif.) was added to each well and incubated at RT for 30 min protected from light. After 30 min, luminescence was read on a PHERAstar luminometer (BMG LABTECH, Cary, N.C.).
CK1α levels in compound-treated wells were normalized to that of DMSO control and expressed as percent of control (PoC) (y).
The lowest measured CK1α level normalized to DMSO control in response to compound treatment, termed Y value, was used to characterize the compound-mediated CK1α degradation efficiency.

T1 sequence (P48729 whole entry): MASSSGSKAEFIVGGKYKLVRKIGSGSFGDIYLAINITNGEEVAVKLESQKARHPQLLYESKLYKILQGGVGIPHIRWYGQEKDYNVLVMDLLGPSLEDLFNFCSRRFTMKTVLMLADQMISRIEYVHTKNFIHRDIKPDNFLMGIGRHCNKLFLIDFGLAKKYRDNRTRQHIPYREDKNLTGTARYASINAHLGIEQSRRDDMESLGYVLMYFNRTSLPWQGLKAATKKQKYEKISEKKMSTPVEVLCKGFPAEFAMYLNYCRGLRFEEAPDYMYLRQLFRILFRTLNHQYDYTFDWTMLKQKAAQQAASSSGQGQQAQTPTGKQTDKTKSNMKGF
T1 sequence (Q96SW2 whole entry): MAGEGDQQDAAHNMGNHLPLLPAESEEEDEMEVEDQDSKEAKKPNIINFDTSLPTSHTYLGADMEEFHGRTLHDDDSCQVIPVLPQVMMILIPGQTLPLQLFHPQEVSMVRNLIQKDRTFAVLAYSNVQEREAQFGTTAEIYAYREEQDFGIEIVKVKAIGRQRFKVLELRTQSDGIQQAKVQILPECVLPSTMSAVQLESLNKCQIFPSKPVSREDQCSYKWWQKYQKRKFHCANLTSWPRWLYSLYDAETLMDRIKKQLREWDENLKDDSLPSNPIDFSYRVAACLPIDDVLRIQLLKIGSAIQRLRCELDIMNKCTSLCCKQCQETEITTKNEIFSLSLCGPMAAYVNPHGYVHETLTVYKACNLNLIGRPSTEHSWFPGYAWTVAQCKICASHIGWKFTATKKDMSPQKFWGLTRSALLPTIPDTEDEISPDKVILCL
T1 sequence (Q16531 whole entry partner): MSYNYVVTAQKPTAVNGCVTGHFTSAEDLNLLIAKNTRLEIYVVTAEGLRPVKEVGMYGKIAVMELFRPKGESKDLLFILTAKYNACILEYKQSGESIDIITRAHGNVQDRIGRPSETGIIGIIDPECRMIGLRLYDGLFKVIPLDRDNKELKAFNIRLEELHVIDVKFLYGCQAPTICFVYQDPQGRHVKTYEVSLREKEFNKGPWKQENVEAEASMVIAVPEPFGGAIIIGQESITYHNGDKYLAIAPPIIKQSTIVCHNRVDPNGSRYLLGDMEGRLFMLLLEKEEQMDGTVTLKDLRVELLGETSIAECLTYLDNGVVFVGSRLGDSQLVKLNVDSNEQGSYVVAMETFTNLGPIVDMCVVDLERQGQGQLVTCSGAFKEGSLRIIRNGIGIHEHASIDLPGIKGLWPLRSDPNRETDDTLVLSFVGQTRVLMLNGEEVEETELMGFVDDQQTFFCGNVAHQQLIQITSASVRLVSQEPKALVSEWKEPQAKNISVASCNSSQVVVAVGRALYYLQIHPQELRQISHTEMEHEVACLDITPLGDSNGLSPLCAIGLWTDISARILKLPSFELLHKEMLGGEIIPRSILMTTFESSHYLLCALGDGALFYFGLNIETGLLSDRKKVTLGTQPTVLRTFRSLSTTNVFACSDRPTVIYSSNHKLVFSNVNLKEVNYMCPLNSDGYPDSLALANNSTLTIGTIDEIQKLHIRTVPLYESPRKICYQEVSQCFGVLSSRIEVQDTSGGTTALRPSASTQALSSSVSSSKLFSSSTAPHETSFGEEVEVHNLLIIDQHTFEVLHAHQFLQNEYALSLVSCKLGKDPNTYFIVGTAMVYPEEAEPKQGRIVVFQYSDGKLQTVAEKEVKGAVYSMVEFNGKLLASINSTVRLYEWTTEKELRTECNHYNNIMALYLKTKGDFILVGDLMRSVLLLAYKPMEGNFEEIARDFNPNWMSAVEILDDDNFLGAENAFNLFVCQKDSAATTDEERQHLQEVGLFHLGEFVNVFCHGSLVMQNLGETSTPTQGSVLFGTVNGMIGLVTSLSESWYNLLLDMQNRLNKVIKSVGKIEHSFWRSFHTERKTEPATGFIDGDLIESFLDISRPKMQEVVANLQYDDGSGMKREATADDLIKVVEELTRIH

| SMILES | DC50 [nM] | Y |
| --- | --- | --- |
| O=C1CCC(N2Cc3cc(C(=O)N[C@H](c4ccccc4F)C(F)(F)F)ccc3C2=O)C(=O)N1 (stereo partly drawn) [Example 49, 2-(2,6-dioxopiperidin-3-yl)-1-oxo-N-((R)-2,2,2-trifluoro-1-(2-fluorophenyl)ethyl)isoindoline-5-carboxamide] | < 100 | * (a Y value (shown as *) of 0<Y≤20%) |
| O=C1CCC(N2Cc3cc(C(=O)N[C@H](c4ccccc4Cl)C(F)(F)F)ccc3C2=O)C(=O)N1 (stereo partly drawn) [Example 50, N-((R)-1-(2-chlorophenyl)-2,2,2-trifluoroethyl)-2-(2,6-dioxopiperidin-3-yl)-1-oxoisoindoline-5-carboxamide] | < 100 | * (a Y value (shown as *) of 0<Y≤20%) |
| C[C@H](NC(=O)c1ccc2c(c1)CN(C1CCC(=O)NC1=O)C2=O)c1ccc(F)cc1F (stereo partly drawn) [Example 51, N-((S)-1-(2,4-difluorophenyl)ethyl)-2-(2,6-dioxopiperidin-3-yl)-1-oxoisoindoline-5-carboxamide] | < 100 | * (a Y value (shown as *) of 0<Y≤20%) |
| O=C1CCC(N2Cc3cc(C(=O)N[C@H](c4cccc(C(F)(F)F)c4)C(F)(F)F)ccc3C2=O)C(=O)N1 (stereo partly drawn) [Example 52, 2-(2,6-dioxopiperidin-3-yl)-1-oxo-N-((R)-2,2,2-trifluoro-1-(3-(trifluoromethyl)phenyl)ethyl)isoindoline-5-carboxamide] | < 100 | * (a Y value (shown as *) of 0<Y≤20%) |
| O=C1CCC(N2Cc3cc(C(=O)N[C@H](C4CCC5(CCC5)CC4)C(F)(F)F)ccc3C2=O)C(=O)N1 (stereo partly drawn) [Example 53, 2-(2,6-dioxopiperidin-3-yl)-1-oxo-N-((1R)-2,2,2-trifluoro-1-(spiro[3.5]nonan-7-yl)ethyl)isoindoline-5-carboxamide] | < 100 | * (a Y value (shown as *) of 0<Y≤20%) |
| O=C1CCC(N2Cc3cc(C(=O)N[C@H](c4cccnc4)C(F)(F)F)ccc3C2=O)C(=O)N1 (stereo partly drawn) [Example 54, 2-(2,6-dioxopiperidin-3-yl)-1-oxo-N-((R)-2,2,2-trifluoro-1-(pyridin-3-yl)ethyl)isoindoline-5-carboxamide] | 100 to 500 | ** (a Y value (shown as**) of 20%<Y≤35%) |
| C[C@H](NC(=O)c1ccc2c(c1)CN(C1CCC(=O)NC1=O)C2=O)c1ccc(Cl)cc1F (stereo partly drawn) [Example 55, N-((S)-1-(4-chloro-2-fluorophenyl)ethyl)-2-(2,6-dioxopiperidin-3-yl)-1-oxoisoindoline-5-carboxamide] | < 100 | * (a Y value (shown as *) of 0<Y≤20%) |
| O=C1CCC(N2Cc3cc(C(=O)N[C@H]([C@H]4CC[C@H](O)CC4)C(F)(F)F)ccc3C2=O)C(=O)N1 (stereo partly drawn) [Example 56, 2-(2,6-dioxopiperidin-3-yl)-1-oxo-N-((R)-2,2,2-trifluoro-1-((1r,4R)-4-hydroxycyclohexyl)ethyl)isoindoline-5-carboxamide] | 100 to 500 | * (a Y value (shown as *) of 0<Y≤20%) |
| O=C1CCC(N2Cc3cc(C(=O)N[C@@H](C(F)(F)F)C45CC(C4)C5)ccc3C2=O)C(=O)N1 (stereo partly drawn) [Example 57, N-((R)-1-(bicyclo[1.1.1]pentan-1-yl)-2,2,2-trifluoroethyl)-2-(2,6-dioxopiperidin-3-yl)-1-oxoisoindoline-5-carboxamide] | < 100 | * (a Y value (shown as *) of 0<Y≤20%) |
| O=C1CCC(N2Cc3cc(C(=O)N[C@H](c4cccc(OC(F)(F)F)c4)C(F)(F)F)ccc3C2=O)C(=O)N1 (stereo partly drawn) [Example 58, 2-(2,6-dioxopiperidin-3-yl)-1-oxo-N-((R)-2,2,2-trifluoro-1-(3-(trifluoromethoxy)phenyl)ethyl)isoindoline-5-carboxamide] | < 100 | * (a Y value (shown as *) of 0<Y≤20%) |
| C[C@H](NC(=O)c1ccc2c(c1)CN(C1CCC(=O)NC1=O)C2=O)c1ccc(F)cc1Cl (stereo partly drawn) [Example 59, N-((S)-1-(2-chloro-4-fluorophenyl)ethyl)-2-(2,6-dioxopiperidin-3-yl)-1-oxoisoindoline-5-carboxamide] | < 100 | * (a Y value (shown as *) of 0<Y≤20%) |
| O=C1CC[C@@H](N2Cc3cc(C(=O)N[C@H](c4ccccc4)C(F)(F)F)ccc3C2=O)C(=O)N1 [Example 60, 2-((R)-2,6-dioxopiperidin-3-yl)-1-oxo-N-((R)-2,2,2-trifluoro-1-phenylethyl)isoindoline-5-carboxamide] | < 100 | * (a Y value (shown as *) of 0<Y≤20%) |
| O=C1CC[C@H](N2Cc3cc(C(=O)N[C@H](c4ccccc4)C(F)(F)F)ccc3C2=O)C(=O)N1 [Example 61, 2-((S)-2,6-dioxopiperidin-3-yl)-1-oxo-N-((R)-2,2,2-trifluoro-1-phenylethyl)isoindoline-5-carboxamide] | < 100 | * (a Y value (shown as *) of 0<Y≤20%) |

Other lines, results leading:

| DC50 [nM] | Y | SMILES |
| --- | --- | --- |
| 100 to 500 | * (a Y value (shown as *) of 0<Y≤20%) | O=C1CCC(N2Cc3cc(C(=O)N[C@H]([C@H]4CC[C@@H](O)CC4)C(F)(F)F)ccc3C2=O)C(=O)N1 (stereo partly drawn) [Example 62, 2-(2,6-dioxopiperidin-3-yl)-1-oxo-N-((R)-2,2,2-trifluoro-1-((1s,4S)-4-hydroxycyclohexyl)ethyl)isoindoline-5-carboxamide] |
| < 100 | * (a Y value (shown as *) of 0<Y≤20%) | N#Cc1ccc([C@@H](NC(=O)c2ccc3c(c2)CN(C2CCC(=O)NC2=O)C3=O)C(F)(F)F)cc1 (stereo partly drawn) [Example 63, N-((R)-1-(4-cyanophenyl)-2,2,2-trifluoroethyl)-2-(2,6-dioxopiperidin-3-yl)-1-oxoisoindoline-5-carboxamide] |
| < 100 | * (a Y value (shown as *) of 0<Y≤20%) | N#Cc1cccc([C@@H](NC(=O)c2ccc3c(c2)CN(C2CCC(=O)NC2=O)C3=O)C(F)(F)F)c1 (stereo partly drawn) [Example 64, N-((R)-1-(3-cyanophenyl)-2,2,2-trifluoroethyl)-2-(2,6-dioxopiperidin-3-yl)-1-oxoisoindoline-5-carboxamide] |
| 500 to 1000 | ** (a Y value (shown as**) of 20%<Y≤35%) | Cn1ccc([C@@H](NC(=O)c2ccc3c(c2)CN(C2CCC(=O)NC2=O)C3=O)C(F)(F)F)n1 (stereo partly drawn) [Example 65, 2-(2,6-dioxopiperidin-3-yl)-1-oxo-N-((R)-2,2,2-trifluoro-1-(1-methyl-1H-pyrazol-3-yl)ethyl)isoindoline-5-carboxamide] |
| 500 to 1000 | ** (a Y value (shown as**) of 20%<Y≤35%) | O=C1CCC(N2Cc3cc(C(=O)N[C@H](c4cncnc4)C(F)(F)F)ccc3C2=O)C(=O)N1 (stereo partly drawn) [Example 66, 2-(2,6-dioxopiperidin-3-yl)-1-oxo-N-((R)-2,2,2-trifluoro-1-(pyrimidin-5-yl)ethyl)isoindoline-5-carboxamide] |
| < 100 | * (a Y value (shown as *) of 0<Y≤20%) | COc1cc(F)ccc1[C@@H](NC(=O)c1ccc2c(c1)CN(C1CCC(=O)NC1=O)C2=O)C(F)(F)F (stereo partly drawn) [Example 67, 2-(2,6-dioxopiperidin-3-yl)-1-oxo-N-((R)-2,2,2-trifluoro-1-(4-fluoro-2-methoxyphenyl)ethyl)isoindoline-5-carboxamide] |
| 100 to 500 | ** (a Y value (shown as**) of 20%<Y≤35%) | CC(C)([C@@H](NC(=O)c1ccc2c(c1)CN(C1CCC(=O)NC1=O)C2=O)C(F)(F)F)C(F)(F)F (stereo partly drawn) [Example 68, 2-(2,6-dioxopiperidin-3-yl)-N-((R)-1,1,1,4,4,4-hexafluoro-3,3-dimethylbutan-2-yl)-1-oxoisoindoline-5-carboxamide] |
| 500 to 1000 | ** (a Y value (shown as**) of 20%<Y≤35%) | Cn1nccc1[C@@H](NC(=O)c1ccc2c(c1)CN(C1CCC(=O)NC1=O)C2=O)C(F)(F)F (stereo partly drawn) [Example 69, 2-(2,6-dioxopiperidin-3-yl)-1-oxo-N-((R)-2,2,2-trifluoro-1-(1-methyl-1H-pyrazol-5-yl)ethyl)isoindoline-5-carboxamide] |
| 100 to 500 | ** (a Y value (shown as**) of 20%<Y≤35%) | Cn1cc([C@@H](NC(=O)c2ccc3c(c2)CN(C2CCC(=O)NC2=O)C3=O)C(F)(F)F)cn1 (stereo partly drawn) [Example 70, 2-(2,6-dioxopiperidin-3-yl)-1-oxo-N-((R)-2,2,2-trifluoro-1-(1-methyl-1H-pyrazol-4-yl)ethyl)isoindoline-5-carboxamide] |
| < 100 | * (a Y value (shown as *) of 0<Y≤20%) | O=C1CCC(N2Cc3cc(C(=O)N[C@H](C4CCC(C(F)(F)F)CC4)C(F)(F)F)ccc3C2=O)C(=O)N1 (stereo partly drawn) [Example 71, 2-(2,6-dioxopiperidin-3-yl)-1-oxo-N-((1R)-2,2,2-trifluoro-1-(4-(trifluoromethyl)cyclohexyl)ethyl)isoindoline-5-carboxamide] |
| < 100 | * (a Y value (shown as *) of 0<Y≤20%) | O=C1CCC(N2Cc3cc(C(=O)N[C@H](c4ccc(F)cc4Cl)C(F)(F)F)ccc3C2=O)C(=O)N1 (stereo partly drawn) [Example 72, N-((R)-1-(2-chloro-4-fluorophenyl)-2,2,2-trifluoroethyl)-2-(2,6-dioxopiperidin-3-yl)-1-oxoisoindoline-5-carboxamide] |
| < 100 | * (a Y value (shown as *) of 0<Y≤20%) | O=C1CCC(N2Cc3cc(C(=O)N[C@H](c4ccc(F)c(F)c4)C(F)(F)F)ccc3C2=O)C(=O)N1 (stereo partly drawn) [Example 73, N-((R)-1-(3,4-difluorophenyl)-2,2,2-trifluoroethyl)-2-(2,6-dioxopiperidin-3-yl)-1-oxoisoindoline-5-carboxamide] |
